Experimental data reported in PubChem BioAssay AID1963860 (Molecular Pharmacology Branch, DTP, NCI, 2024).

Test system: CN0375-F725-PDC KRAS spheroid viability
Assay: Anticancer human tumor CN0375-F725-PDC patient-derived colon carcinoma cell line growth inhibition [KRAS2]
Settings: spheroids with HUVEC and MSC; for IC50: curve of first compound; for viability, T/C: stronger effect = lower value
Method in brief: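 Combination screen of spheroid viability in tumor-cell co-cultures with endothelial (HUVEC) and mesenchymal stem cell stroma. Each agent was tested in half-log dilutions, topping at clinical Cmax or at 10 microM without a known Cmax.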

[1] = second compound 0.1 µM, first compound 0.0316 µM
[2] = second compound 0.1 µM, first compound 0.1 µM
[3] = second compound 0.1 µM, first compound 0.316 µM
[4] = second compound 0.1 µM, first compound 1 µM
[5] = second compound 0.1 µM, first compound 3.16 µM
[6] = second compound 0.1 µM, first compound 10 µM
[7] = second compound 0.316 µM, first compound 0.0316 µM
[8] = second compound 0.316 µM, first compound 0.1 µM
[9] = second compound 0.316 µM, first compound 0.316 µM
[10] = second compound 0.316 µM, first compound 1 µM
[11] = second compound 0.316 µM, first compound 3.16 µM
[12] = second compound 0.316 µM, first compound 10 µM
[13] = second compound 1 µM, first compound 0.0316 µM
[14] = second compound 1 µM, first compound 0.1 µM
[15] = second compound 1 µM, first compound 0.316 µM
[16] = second compound 1 µM, first compound 1 µM
[17] = second compound 1 µM, first compound 3.16 µM
[18] = second compound 1 µM, first compound 10 µM
[19] = second compound 3.16 µM, first compound 0.0316 µM
[20] = second compound 3.16 µM, first compound 0.1 µM
[21] = second compound 3.16 µM, first compound 0.316 µM
[22] = second compound 3.16 µM, first compound 1 µM
[23] = second compound 3.16 µM, first compound 3.16 µM
[24] = second compound 3.16 µM, first compound 10 µM
[25] = second compound 10 µM, first compound 0.0316 µM
[26] = second compound 10 µM, first compound 0.1 µM
[27] = second compound 10 µM, first compound 0.316 µM
[28] = second compound 10 µM, first compound 1 µM
[29] = second compound 10 µM, first compound 3.16 µM
[30] = second compound 10 µM, first compound 10 µM
[31] = second compound 0.1 µM, first compound 0.01 µM
[32] = second compound 0.316 µM, first compound 0.01 µM
[33] = second compound 1 µM, first compound 0.01 µM
[34] = second compound 3.16 µM, first compound 0.01 µM
[35] = second compound 10 µM, first compound 0.01 µM
[36] = second compound 0.1 µM, first compound 0.00316 µM
[37] = second compound 0.316 µM, first compound 0.00316 µM
[38] = second compound 1 µM, first compound 0.00316 µM
[39] = second compound 3.16 µM, first compound 0.00316 µM
[40] = second compound 10 µM, first compound 0.00316 µM
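Note: spheroids exposed to agents for 7 days.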

Structure (SMILES)	IC50 (second compound 0.1 µM) [µM]	IC50 (second compound 0.316 µM) [µM]	IC50 (second compound 1 µM) [µM]	IC50 (second compound 3.16 µM) [µM]	IC50 (second compound 10 µM) [µM]	viability, T/C [1] [%]	viability, T/C [2] [%]	viability, T/C [3] [%]	viability, T/C [4] [%]	viability, T/C [7] [%]	viability, T/C [8] [%]	viability, T/C [9] [%]	viability, T/C [10] [%]	viability, T/C [13] [%]	viability, T/C [14] [%]	viability, T/C [15] [%]	viability, T/C [19] [%]	viability, T/C [20] [%]	viability, T/C [25] [%]	viability, T/C [26] [%]	further results
CC(C)NCC(C(=O)N1CCN(c2ncnc3c2C(C)CC3O)CC1)c1ccc(Cl)cc1 (stereo not given) + C=CC(=O)N1CCN(c2nc(=O)n(-c3c(C)ccnc3C(C)C)c3nc(-c4c(O)cccc4F)c(F)cc23)C(C)C1	> 10	> 10	> 10	> 10	> 10	108	106	91.4	88.9	102	105	92.4	89	103	110	98.8	106	111	101	95.7	viability, T/C [5]: 87.8%; viability, T/C [6]: 80.1%; viability, T/C [11]: 89.6%; viability, T/C [12]: 75.9%; viability, T/C [16]: 86.3%; viability, T/C [17]: 84.4%; viability, T/C [18]: 77%; viability, T/C [21]: 101%; viability, T/C [22]: 87.7%; viability, T/C [23]: 84.2%; viability, T/C [24]: 73%; viability, T/C [27]: 88.7%; viability, T/C [28]: 72%; viability, T/C [29]: 71.9%; viability, T/C [30]: 55.7%
CC1COCCN1c1cc(-c2ccnn2C)c2ccnc(-c3ccn[nH]3)c2n1 (stereo not given) + C=CC(=O)N1CCN(c2nc(=O)n(-c3c(C)ccnc3C(C)C)c3nc(-c4c(O)cccc4F)c(F)cc23)C(C)C1	> 3.16	> 3.16	> 3.16	> 3.16	1.78	99.4	88.8	81.6	65.5	95.3	80	78.2	65.5	103	89	80.5	107	89.3	103	84.5	viability, T/C [31]: 107%; viability, T/C [5]: 55.8%; viability, T/C [32]: 104%; viability, T/C [11]: 52.6%; viability, T/C [33]: 100%; viability, T/C [16]: 65.6%; viability, T/C [17]: 53.8%; viability, T/C [34]: 101%; viability, T/C [21]: 76.7%; viability, T/C [22]: 64.4%; viability, T/C [23]: 53.5%; viability, T/C [35]: 102%; viability, T/C [27]: 71.7%; viability, T/C [28]: 55.5%; viability, T/C [29]: 44.6%
CCN1CCN(Cc2ccc(Nc3ncc(F)c(-c4cc(F)c5nc(C)n(C(C)C)c5c4)n3)nc2)CC1 + C=CC(=O)N1CCN(c2nc(=O)n(-c3c(C)ccnc3C(C)C)c3nc(-c4c(O)cccc4F)c(F)cc23)C(C)C1	> 1	> 1	> 1	> 1	0.947	88.9	96.4	107	95.4	86.8	91.2	107	98.3	89.6	98.7	115	93.9	90.7	87.8	80.7	viability, T/C [36]: 105%; viability, T/C [31]: 96.2%; viability, T/C [37]: 106%; viability, T/C [32]: 105%; viability, T/C [38]: 104%; viability, T/C [33]: 107%; viability, T/C [16]: 105%; viability, T/C [39]: 108%; viability, T/C [34]: 107%; viability, T/C [21]: 111%; viability, T/C [22]: 102%; viability, T/C [40]: 101%; viability, T/C [35]: 108%; viability, T/C [27]: 97.8%; viability, T/C [28]: 47.8%
CCNC(=O)CC1N=C(c2ccc(Cl)cc2)c2cc(OC)ccc2-n2c(C)nnc21 (stereo not given) + C=CC(=O)N1CCN(c2nc(=O)n(-c3c(C)ccnc3C(C)C)c3nc(-c4c(O)cccc4F)c(F)cc23)C(C)C1	> 10	> 10	> 10	> 10	> 10	100	95.8	88.1	86	99.9	99.5	84.5	82	104	104	87.3	104	94.9	102	99	viability, T/C [5]: 74.7%; viability, T/C [6]: 57.4%; viability, T/C [11]: 71.1%; viability, T/C [12]: 58%; viability, T/C [16]: 86.8%; viability, T/C [17]: 75.5%; viability, T/C [18]: 64.7%; viability, T/C [21]: 88.4%; viability, T/C [22]: 85.1%; viability, T/C [23]: 67.9%; viability, T/C [24]: 59%; viability, T/C [27]: 84.6%; viability, T/C [28]: 71.6%; viability, T/C [29]: 73.9%; viability, T/C [30]: 60.8%
Cn1ncnc1[C@H]1c2n[nH]c(=O)c3cc(F)cc(c23)N[C@@H]1c1ccc(F)cc1 + C=CC(=O)N1CCN(c2nc(=O)n(-c3c(C)ccnc3C(C)C)c3nc(-c4c(O)cccc4F)c(F)cc23)C(C)C1	> 0.1	> 0.1	> 0.1	> 0.1	> 0.1	102	98.2			99.3	99.9			104	99.5		108	99.7	95.7	93.5	viability, T/C (second compound 0.1 µM, first compound 0.000316 µM): 110%; viability, T/C (second compound 0.1 µM, first compound 0.001 µM): 103%; viability, T/C [36]: 100%; viability, T/C [31]: 103%; viability, T/C (second compound 0.316 µM, first compound 0.000316 µM): 107%; viability, T/C (second compound 0.316 µM, first compound 0.001 µM): 114%; viability, T/C [37]: 104%; viability, T/C [32]: 96.3%; viability, T/C (second compound 1 µM, first compound 0.000316 µM): 107%; viability, T/C (second compound 1 µM, first compound 0.001 µM): 104%; viability, T/C [38]: 109%; viability, T/C [33]: 104%; viability, T/C (second compound 3.16 µM, first compound 0.000316 µM): 114%; viability, T/C (second compound 3.16 µM, first compound 0.001 µM): 110%; viability, T/C [39]: 108%; viability, T/C [34]: 104%; viability, T/C (second compound 10 µM, first compound 0.000316 µM): 112%; viability, T/C (second compound 10 µM, first compound 0.001 µM): 106%; viability, T/C [40]: 99.3%; viability, T/C [35]: 96.8%
